Experimental data from article PMC7155171, “Probing the Open Global Health Chemical Diversity Library for Multistage-Active Starting Points for Next-Generation Antimalarials” (ACS Infectious Diseases, 2020).
Read-outs that look alike come from different tables or passages of the source.

Tests used:
[1] = system: P. falciparum Dd2 (PfLuc) line expressing firefly luciferase, asexual blood stage; assay: microbe, parasite or virus in culture; assay type: cell-based, Plasmodium falciparum; conditions: Plasmodium falciparum
[2] = system: P. falciparum Dd2; assay: SYBR green I asexual blood stage proliferation assay (96 h); assay type: cell-based, Plasmodium falciparum; conditions: for IC50 / Emax: Plasmodium falciparum
[3] = DD2, read-out: CDD P. falciparum Luciferase ABS 11-pt Reconfirmation Dose Response (48hr): IC50 (μM), 11-pt dose response, 48hr
[4] = DD2, 8-pt dose response, 96hr, read-out: CDD P. falciparum Luciferase ABS 8-pt Reconfirmation Dose Response (96hr): IC50
[5] = DD2, 8-pt dose response, 96hr, read-out: CDD P. falciparum Luciferase ABS 8-pt Reconfirmation Dose Response (96hr): Maximum inhibition (%)
[6] = DD2, 11-pt dose response, 48hr, read-out: CDD P. falciparum Luciferase ABS 11-pt Reconfirmation Dose Response (48hr): Maximum inhibition (%)
[7] = DD2, 11-pt dose response, 96hr, read-out: CDD P. falciparum Luciferase ABS 11-pt Reconfirmation Dose Response (96hr): IC50
[8] = DD2, 11-pt dose response, 96hr, read-out: CDD P. falciparum Luciferase ABS 11-pt Reconfirmation Dose Response (96hr): Maximum inhibition (%)
[9] = DD2, Sybr Green I, 11-pt dose response, 96hr, read-out: CDD P. falciparum Sybr Green I ABS 11-pt Reconfirmation Dose Response (96hr): IC50
[10] = DD2, Sybr Green I, 11-pt dose response, 96hr, read-out: CDD P. falciparum Sybr Green I ABS 11-pt Reconfirmation Dose Response (96hr): Maximum inhibition (%)
[11] = DD2, read-out: P. falciparum Luciferase ABS 11-pt Reconfirmation Dose Response (48hr): IC50, 11-pt dose response, 48hr
[12] = DD2, 8-pt dose response, 96hr, read-out: P. falciparum Luciferase ABS 8-pt Reconfirmation Dose Response (96hr): IC50
[13] = DD2, 8-pt dose response, 96hr, read-out: P. falciparum Luciferase ABS 8-pt Reconfirmation Dose Response (96hr): Maximum inhibition (%)
[14] = DD2, 11-pt dose response, 96hr, read-out: P. falciparum Luciferase ABS 11-pt Reconfirmation Dose Response (96hr): IC50
[15] = DD2, 11-pt dose response, 96hr, read-out: P. falciparum Luciferase ABS 11-pt Reconfirmation Dose Response (96hr): Maximum inhibition (%)
[16] = DD2, 11-pt dose response, 96hr, read-out: P. falciparum Sybr Green I ABS 11-pt Reconfirmation Dose Response (96hr): IC50
[17] = DD2, 11-pt dose response, 96hr, read-out: P. falciparum Sybr Green I ABS 11-pt Reconfirmation Dose Response (96hr): Maximum inhibition (%)
[18] = DD2, 11-pt dose response, 48hr, read-out: P. falciparum Luciferase ABS 11-pt Reconfirmation Dose Response (48hr): Maximum inhibition (%)

Compound | IC50 [1, 3] [µM] | IC50 [1, 4] [µM] | Emax [1, 5] [%] | Emax [1, 6] [%] | IC50 [1, 7] [µM] | Emax [1, 8] [%] | IC50 [2, 9] [nM] | Emax [2, 10] [%] | IC50 [1, 12] [µM] | Emax [1, 13] [%] | further results
COc1cc(CNCC(O)c2ccc(F)c(F)c2)cc2c1OCO2 (stereo not shown) [DDD00408586] | 2.05 | 0.55 | 90.7 | 96.5 | 1.22 | 99.5 | 1890 | 97.2 | – | – | –
CC[C@H]1CN2CC[C@H]1C[C@@H]2CNCc1ccc(OC(F)(F)F)cc1 [DDD01025218] | 2.91 | 1.07 | 92.1 | 93 | > 1.39 | 100 | 4160 | 89.4 | – | – | –
COc1ccc2[nH]c(C[C@@H]3C[C@@H](C(C)C)[C@H](CN(C)C)C=C3C)nc2c1 [DDD01025345] | 12 | 0.59 | 88.6 | 66.8 | 1.53 | 91.5 | 3630 | 67.2 | – | – | –
CCC1CN(CC(=O)NCCN2CCCCC2)c2ccccc2S1 (stereo not shown) [DDD01025850] | 5.56 | 1.1 | 87.2 | 55.4 | 2.56 | 83.2 | 7990 | 74.7 | – | – | –
CN1CC[C@H](N(Cc2ccccc2)Cc2ccccc2)C[C@H](O)C1 [DDD01026217] | > 4.16 | 0.91 | 80.7 | 69.3 | > 4.16 | 93.7 | 7310 | 73.4 | – | – | –
Cc1ccc(C(CCNCCCN(C)C)C2CCOC(C)(C)C2)cc1 (stereo not shown) [DDD01026662] | 7.59 | 0.76 | 96.2 | 95.3 | 5.89 | 98.8 | 1570 | 97.5 | – | – | –
CN(C)CCCNCCC(Cc1ccccc1)C1CCOC(C)(C)C1 (stereo not shown) [DDD01026664, CN(C)CCCNCCC(Cc1ccccc1)C1CCOC(C)(C)C1] | – | – | – | – | – | – | – | – | – | – | IC50 ([1]; DD2, read-out: CDD P. falciparum Luc 11pt dose response (96hr, n=2): IC50 (μM), 96hr, 11-point, n=2): 0.11 µM; IC50 ([1]; DD2, read-out: CDD P. falciparum Luciferase 11pt dose response (48hr, n=2): IC50 (μM), 48hr, 11-point, n=2): 0.405 µM; Emax ([1]; DD2, 48hr, 11-point, read-out: CDD P. falciparum Luciferase ABS 11-pt Reconfirmation Dose Response (48hr): Maximum inhibition (%)): 98.1%; Emax ([1]; DD2, 96hr, 11-point, read-out: CDD P. falciparum Luciferase ABS 11-pt Reconfirmation Dose Response (96hr): Maximum inhibition (%)): 101%; CDD P. falciparum Sybr Green I ABS Dd2 Dose Response: Maximum measured (%) ([2]; Dd2, 96 h): 98.8%; IC50 ([2]; DD2, 96 h, read-out: CDD P. falciparum Sybr Green I ABS Dd2 Dose Response: IC50): 251 nM
Cc1ncc(CNCCO)c2cc(C(=O)c3ccc(Br)cc3)oc12 [DDD01027290] | – | – | – | – | – | – | – | – | 1.35 | 90.8 | IC50 [1, 11]: > 12.5 µM; IC50 [1, 14]: 1.63 µM; Emax [1, 15]: 98.3%; IC50 [2, 16]: 3320 nM; Emax [2, 17]: 63.7%
O=S(=O)(NCC(c1ccsc1)N1CCCCCC1)c1cccs1 (stereo not shown) [DDD01027501] | – | – | – | – | – | – | – | – | 1.94 | 83.7 | IC50 [1, 11]: > 12.5 µM; Emax [1, 18]: 44%; IC50 [1, 14]: 8.75 µM; IC50 [2, 16]: 7790 nM; Emax [2, 17]: 69.9%
Cc1cc(C)c(N(CC(O)CNCc2ccccc2)S(C)(=O)=O)c(C)c1 (stereo not shown) [DDD01027603] | 2.17 | 0.51 | 90.1 | 75 | 0.829 | 90.9 | 4910 | 81.7 | – | – | –
Cn1cc(CN2CCCC(CCc3ccc(F)cc3)C2)cn1 (stereo not shown) [DDD01246631] | – | – | – | – | – | – | – | – | 1.75 | 84.6 | –
CC(C)(C)n1cc(C2=CCN(CCN3CCCCCC3)CC2)cn1 [DDD01248990] | – | – | – | – | – | – | – | – | 1.53 | 78.1 | –
COc1ccc2[nH]c(CNc3cc(C4CCNCC4)nc(C)n3)cc2c1 [DDD01249030] | – | – | – | – | – | – | – | – | 1.88 | 88 | –
CN1CCC(N(C)C[C@H]2CC[C@@H](Cc3ccc4occc4c3)O2)CC1 [DDD01250070] | – | – | – | – | – | – | – | – | 1.57 | 82.8 | –
C=Cc1cccc(CN2C[C@@H](CN(C)CC)[C@@H](CO)C2)c1 [DDD01250237] | – | – | – | – | – | – | – | – | 1.27 | 83.3 | –
C[C@@H]1CN(C(=O)C2CCS(=O)(=O)CC2)CC[C@@]1(O)C1CCOCC1 [DDD01250493] | – | – | – | – | – | – | – | – | 1.67 | 82.2 | –
O=C(CCN1CCCC(CO)(CC2CC2)C1)NCc1cccc(Cl)c1 (stereo not shown) [DDD01250518] | – | – | – | – | – | – | – | – | 1.83 | 81.8 | –
COc1ccccc1CCN1CCCC(CN(C)Cc2ccc(C)o2)C1 (stereo not shown) [DDD01250738] | – | – | – | – | – | – | – | – | 1.36 | 86.1 | –
COc1ccnc(CN2CCCC(CCc3ccccc3)C2)c1OC (stereo not shown) [DDD01250826] | – | – | – | – | – | – | – | – | 1.26 | 92.5 | IC50 [1, 11]: 1.41 µM; Emax [1, 18]: 93%; IC50 [1, 14]: 0.447 µM; Emax [1, 15]: 99.3%
Cn1cc(CN2CCCC(CCc3ccc(F)cc3F)C2)cn1 (stereo not shown) [DDD01251707] | – | – | – | – | – | – | – | – | 1.69 | 81 | –
